For three compounds, IC50 results are on record in US20080167330A1, “Carbamoylsulphoximides as protein kinase inhibitors” (priority 2006, published 2008).

Structures are written as SMILES.

What is called IC50 is the concentration needed to halve the response being measured. Low readings indicate higher potency, high ones lower potency.

One experiment deals with T1, human Aurora-C (Homo sapiens, UniProt Q9UQB9).
T1 construct: GST; made in house; host or cells: transiently transfected HEK293 cells
T1 sequence (Q9UQB9 1-309): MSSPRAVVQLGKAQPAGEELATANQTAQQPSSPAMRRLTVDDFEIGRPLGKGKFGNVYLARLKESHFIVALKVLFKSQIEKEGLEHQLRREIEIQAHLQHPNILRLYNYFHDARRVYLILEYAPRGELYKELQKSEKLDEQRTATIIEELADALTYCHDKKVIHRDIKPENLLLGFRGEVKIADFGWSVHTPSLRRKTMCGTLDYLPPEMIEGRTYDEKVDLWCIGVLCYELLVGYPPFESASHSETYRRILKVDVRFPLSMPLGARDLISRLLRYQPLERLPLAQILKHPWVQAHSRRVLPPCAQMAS
Kind of experiment: Aurora-C kinase assay (HTRF). The class given is biochemical. The settings on record: 10 μM ATP. As for the experimental part:
The Aurora-C inhibitory activity of the substances of this invention was measured in the Aurora-C-HTRF assay (HTRF=Homogeneous Time Resolved Fluorescence) described in the following paragraphs.
Recombinant fusion protein of GST and human Aurora-C was expressed in transiently transfected HEK293 cells and purified by affinity chromatography on glutathione-Sepharose. The substrate used for the kinase reaction was the biotinylated peptide biotin-Ttds-FMRLRRLSTKYRT (C terminus in amide form) which can be purchased for example from JERINI Peptide Technologies (Berlin). Aurora-C was incubated in the presence of various concentrations of test substances in 5 μL of assay buffer [25 mM Hepes/NaOH pH 7.4, 0.5 mM MnCl2, 2.0 mM dithiothreitol, 0.1 mM sodium orthovanadate, 10 μM adenosine triphosphate (ATP), […] substrate, 0.01% (v/v) TritonX-100 (Sigma), 0.05% (w/v) bovine serum albumin (BSA), 1% (v/v) dimethyl sulphoxide] at 22° C. for 60 min. The concentration of Aurora-C was adapted to the particular activity of the enzyme and adjusted so that the assay operated in the linear range. Typical concentrations were in the region of 0.3 nM. The reaction was stopped by adding 5 μl of a solution of HTRF detection reagents (0.2 μM streptavidin-XLent and 1.4 nM anti-phospho-(Ser/Thr)-Akt substrate-Eu-cryptate (Cis biointernational, France, product No. 61P02KAE), a Europium-cryptate-labelled phospho-(Ser/Thr)-Akt substrate antibody [product #9611B, Cell Signaling Technology, Danvers, Mass., USA]) in aqueous EDTA solution (40 mM EDTA, 400 mM KF, 0.05% (w/v) bovine serum albumin (BSA) in 25 mM HEPES/NaOH pH 7.0).
The resulting mixture was incubated at 22° C. for 1 h in order to allow formation of a complex of the biotinylated phosphorylated substrate and the detection reagents. The amount of phosphorylated substrate was then estimated by measuring the resonance energy transfer from the anti-phospho-(Ser/Thr)-Akt substrate-Eu cryptate to the streptavidin-XLent. For this purpose, the fluorescence emissions at 620 nm and 665 nm after excitation at 350 nm were measured in an HTRF measuring instrument, e.g. a Rubystar (BMG Labtechnologies, Offenburg, Germany) or a Viewlux (Perkin-Elmer). The ratio of the emissions at 665 nm and at 622 nm was taken as a measure of the amount of phosphorylated substrate. The data were normalized (enzymic reaction without inhibitor=0% inhibition, all other assay components but no enzyme=100% inhibition) and IC50 values were calculated with a 4-parameter fit using an inhouse software.
A general note: TR-FRET usually uses a lanthanide donor and a delayed reading to cut background.

Another experiment addresses T2, KDR (VEGFR2) (Homo sapiens, UniProt P35968).
T2 construct: GST; purchased ProQinase GmbH, Freiburg; host or cells: baculovirus-infected insect cells (Sf9)
The experiment in a line: KDR kinase assay. The class given is biochemical. The following applies: 8 μM ATP. The protocol: Recombinant KDR kinase-GST fusion proteins purified from baculovirus-infected insect cells (Sf9), were purchased from ProQinase GmbH, Freiburg. Poly(Glu4Tyr)n, which was used as kinase substrate, was purchased from Sigma.
KDR kinase was incubated in the presence of various concentrations of test substances (0 μM, and within the range 0.01-100 μM) in 40 μL of assay buffer [40 mM Tris/HCl pH 7.5, 10 mM MgCl2, 1 mM MnCl2, 1.0 mM dithiothreitol, 8 μM ATP, 0.025% PEG20000, 24 ng/μL poly(Glu4Tyr)n, 0.2 μCi/measurement point ^33P-gamma ATP, 1.25% dimethyl sulphoxide] at 22° C. for 10 min. The reaction was stopped by adding EDTA solution (250 mM, pH 7.5, 15 μl/measurement point). 15 μl of each reaction mixture were loaded onto P30 filter strips (from Wallac), and non-incorporated ^33P-ATP was removed by washing the filter strips three times in 0.5% strength phosphoric acid for 10 min each time.
After the filter strips had been dried at 70° C. for 1 hour, the filter strips were covered with scintillator strips (MeltiLex™ A, from Wallac) and baked at 90° C. for 1 hour. The amount of incorporated ^33P (substrate phosphorylation) was determined by scintillation measurement in a gamma radiation counter (Wallac).
The measured data were normalized to 0% inhibition (enzyme reaction without inhibitor) and 100% inhibition (all assay components except enzyme). The IC50 values were determined by means of a 4-parameter fit using the company's own software.

Experiment [1] relates to human MCF7 breast tumour cells. Kind of experiment: MCF7 proliferation assay. The format is cell-based. The following applies: MCF7, 96 h, 4 days incubation, crystal violet staining. As for the experimental part: Cultivated human MCF7 breast tumour cells (ATCC HTB-22) were plated out in a density of 5000 cells/measurement point in 200 μl of growth medium (RPMI1640, 10% foetal calf serum, 2 mU/mL insulin, 0.1 nM oestradiol) in a 96-well multititre plate. After 24 hours, the cells from a plate (zero plate) were stained with crystal violet (see below), while the medium in the other plates was replaced by fresh culture medium (200 μl) to which the test substances had been added in various concentrations (0 μM, and in the range 0.01-30 μM; the final concentration of the solvent dimethyl sulphoxide was 0.5%). The cells were incubated in the presence of the test substances for 4 days. The cell proliferation was determined by staining the cells with crystal violet: the cells were fixed by adding 20 μl/measurement point of an 11% strength glutaraldehyde solution at room temperature for 15 min. After the fixed cells had been washed three times with water, the plates were dried at room temperature. The cells were stained by adding 100 μl/measurement point of a 0.1% strength crystal violet solution (pH adjusted to pH 3 by adding acetic acid). After the stained cells had been washed three times with water, the plates were dried at room temperature. The dye was dissolved by adding 100 μl/measurement point of a 10% strength acetic acid solution, and the extinction was determined by photometry at a wavelength of 595 nm. The percentage change in cell growth was calculated by normalizing the measurements to the extinctions of the zero point plate (=0%) and the extinction of the untreated (0 μM) cells (=100%). The IC50 values were determined by means of a 4-parameter fit using the company's own software.

T2 sequence (P35968 807-1356 limits assumed): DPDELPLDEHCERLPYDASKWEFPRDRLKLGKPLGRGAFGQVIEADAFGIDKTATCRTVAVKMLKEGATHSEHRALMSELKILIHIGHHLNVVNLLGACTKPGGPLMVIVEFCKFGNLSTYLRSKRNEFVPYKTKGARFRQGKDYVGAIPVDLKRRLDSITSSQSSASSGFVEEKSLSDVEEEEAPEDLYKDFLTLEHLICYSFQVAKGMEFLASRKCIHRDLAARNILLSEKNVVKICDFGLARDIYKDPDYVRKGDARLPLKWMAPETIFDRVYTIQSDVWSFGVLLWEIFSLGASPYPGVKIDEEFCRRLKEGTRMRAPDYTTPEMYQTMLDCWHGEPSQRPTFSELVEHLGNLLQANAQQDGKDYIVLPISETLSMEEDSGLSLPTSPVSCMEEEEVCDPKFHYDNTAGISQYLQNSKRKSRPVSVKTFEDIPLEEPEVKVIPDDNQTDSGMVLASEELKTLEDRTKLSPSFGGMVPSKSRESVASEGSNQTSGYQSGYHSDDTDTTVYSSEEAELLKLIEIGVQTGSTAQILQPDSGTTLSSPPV

Consider `C[C@@H](O)[C@@H](C)Nc1nc(Nc2ccc(NC(=O)N=S(C)(C)=O)cc2)ncc1Br` [Example 3, N-({4-[(5-Bromo-4-{[(1R,2R)-2-hydroxy-1-methylpropyl]amino}pyrimidin-2-yl)amino]phenyl}carbamoyl)-S,S-dimethylsulphoximide], for which the IC50 against human Aurora-C was determined as 280 nM; at KDR (VEGFR2), 120 nM; in experiment [1], 160 nM.

`C[C@@H](O)[C@@H](C)Oc1nc(Nc2ccc(C(=O)N=S(C)(C)=O)cc2)ncc1Br` [Example 20, N-{4-[(5-Bromo-4-{[(1R,2R)-2-hydroxy-1-methylpropyl]oxy}pyrimidin-2-yl)amino]benzoyl}-S,S-dimethylsulphoximide]: the figures for the IC50 (against human Aurora-C; at KDR (VEGFR2); in experiment [1]) were 310 nM, 96 nM and 310 nM, respectively.

On to `COc1cc(Nc2ncc(Br)c(N[C@H](C)[C@@H](C)O)n2)ccc1NC(=O)N=S(C)(C)=O` [Example 11, N-({4-[(5-Bromo-4{[(1R,2R)-2-hydroxy-1-methylpropyl]amino}pyrimidin-2-yl)amino]-2-methoxyphenyl}carbamoyl)-S,S-dimethylsulphoximide], for which the half-inhibitory concentration (IC50) against human Aurora-C came out at 430 nM; at KDR (VEGFR2), 96 nM; in experiment [1] it was 990 nM.
